The assay addresses T1, soybean lipoxidase type V (Glycine max, UniProt P08170).
T1 sequence (P08170 1-839): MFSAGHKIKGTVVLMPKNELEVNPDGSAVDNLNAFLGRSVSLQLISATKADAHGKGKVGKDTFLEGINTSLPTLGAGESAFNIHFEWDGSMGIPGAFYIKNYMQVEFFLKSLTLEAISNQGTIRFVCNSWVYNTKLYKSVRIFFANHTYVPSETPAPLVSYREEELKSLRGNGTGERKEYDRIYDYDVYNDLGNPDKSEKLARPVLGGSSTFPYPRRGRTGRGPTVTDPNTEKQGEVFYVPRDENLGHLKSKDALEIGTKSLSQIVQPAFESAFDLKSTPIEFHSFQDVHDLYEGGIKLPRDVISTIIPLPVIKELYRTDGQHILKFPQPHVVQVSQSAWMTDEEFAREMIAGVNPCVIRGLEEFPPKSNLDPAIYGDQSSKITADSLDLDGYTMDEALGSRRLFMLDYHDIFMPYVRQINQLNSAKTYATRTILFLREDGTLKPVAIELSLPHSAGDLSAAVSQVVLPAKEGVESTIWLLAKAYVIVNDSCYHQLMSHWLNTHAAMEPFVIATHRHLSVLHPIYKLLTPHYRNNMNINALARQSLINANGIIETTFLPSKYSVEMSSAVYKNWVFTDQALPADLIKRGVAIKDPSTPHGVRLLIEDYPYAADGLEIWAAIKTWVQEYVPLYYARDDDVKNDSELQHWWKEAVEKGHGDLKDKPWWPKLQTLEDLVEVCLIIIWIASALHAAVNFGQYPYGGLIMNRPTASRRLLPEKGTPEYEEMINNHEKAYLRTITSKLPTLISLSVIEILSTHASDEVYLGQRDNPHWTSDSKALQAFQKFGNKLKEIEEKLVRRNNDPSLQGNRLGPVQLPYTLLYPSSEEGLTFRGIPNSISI
As to conditions: for A234 nm/min.: 25° C., 0.1M borate pH 9.

Where two headings read alike, the source gives them in different places.

Take `Oc1cccc2ccccc12` [alpha-Naphthol, alpha-naphthol]: the A234 nm/min. result (alpha-Naphthol 2.5 × 10^-5 M) is “.230 min⁻¹”. Further, the A234 nm/min. entry (alpha-Naphthol 6.2 × 10^-5 M) is “.141 min⁻¹”. Besides, the A234 nm/min. entry (alpha-Naphthol 7.5 × 10^-5 M) is “.074 min⁻¹”. For the same compound, under “alpha-Naphthol 8.8 × 10^-5 M”, the A234 nm/min. entry was “.069 min⁻¹”. In addition, for the setting “alpha-Naphthol 12.5 × 10^-5 M”, the A234 nm/min. result was “.021 min⁻¹”. For the same compound, under “pH 9”, testing at 25 µM gave an inhibition of 12%; testing at 62 µM gave an inhibition of 46%; the inhibition (in general, the change of the read-out against control, counted positive when it falls) at 75 µM was 72%; testing at 88 µM gave an inhibition of 74%. The same compound came in with an inhibition at 125 µM (pH 9) of 92%.

For the compound `CC(Cc1ccc(O)c(O)c1)C(C)Cc1ccc(O)c(O)c1` (centres unmarked) [NDGA, nordihydroguaiaretic acid], the A234 nm/min. reads like this: (NDGA 1.3 × 10^-4 M) 0.217 min⁻¹; (NDGA 2.6 × 10^-4 M) 0.186 min⁻¹; (NDGA 3.2 × 10^-4 M) 0.100 min⁻¹; (NDGA 3.9 × 10^-4 M) 0.035 min⁻¹. Besides, the inhibition at 130 µM (pH 9) was 1%. In addition, for the setting “pH 9”, the inhibition at 260 µM was found to be 14%. This compound came in with an inhibition at 320 µM (pH 9) of 54%.

These data come from US4708964A, “Lipoxygenase inhibitors” (Chemex Pharmaceuticals, priority 1984, dated 1987).
